Here are results for 7 compounds from patent publication US20050288222A1, “Methods for enhancing the bioavailability of a drug” (priority 2000, published 2005).

Each structure is given as a SMILES string. In brackets after ≈: the same amount, converted by molar mass. Several values for one entry are separate records, joined by “and”; a condition that tells them apart may be missing. Identical values can stand only once. Like-named read-outs stand apart in the source and are kept apart here. Non-standard residues stand in square brackets, D forms with d. Residues, ends and D or L forms follow the SMILES beside them. *: point of attachment. X1 = CC(C)C[C@H](C(=O)*)N(C)C Where only a bound is given, the exact number is not on record here.

Series [1] is described as follows: physchem.
Series [2] has as its target B-amyloid (Homo sapiens, UniProt P05067). Put plainly: KD of potent B-amyloid aggregation inhibitors (Table II). In kind it is binding.
For series [3] the following is noted: rat, in vivo.
Source text: The perfused, ipsilateral, left forebrain (choroid plexus removed) was subjected to capillary depletion (as described by Triguero et al., 1990) so as to produce brain supernatant that was void of blood vessels (as determined by alkaline phosphatase measurements).
The conditions of series [4]: rat, in vivo. The source holds these as a separate data set.
The conditions of series [5]: rat, in vivo. The source holds these as a separate data set.
The conditions of series [6]: rat, in vivo. The source holds these as a separate data set.
Procedure: (§1) The drug cocktail was infused (100 μL/h) via a cannula in the external carotid artery so that the infusate was picked up by the blood and carried directly to the Circle of Willis/brain (via the left internal carotid artery, PTA occluded). At 30 minutes post cessation of the 10 minute IA infusion the left side of the brain was voided of blood by manually infusing 1 ml of saline via the cannula in the external carotid artery with the common carotid artery now ligated. The perfused left forebrain (choroid plexus removed) was subjected to capillary depiction (as described by Triguero et al., 1990) so as to produce brain supernatant that was void of blood vessels (as determined by alkaline phosphatase measurements).
The conditions of series [7]: in vivo.
Series [8] in a line: in vivo.
Series [9] in a line: in vivo. As to conditions: male, Sprague-Dawley, rat.
Procedure: as §1
Series [10] in a line: Biodistribution of 3H-PPI-558 +/- cyclosporin A (experiment 4, Table III). To be noted: for Kidney (expressed as % administered): rat, sac t = 61 min.
For series [11] the following is noted: rat, in vivo. The source holds these as a separate data set.

B-amyloid, sequence (P05067 672-711 limits assumed): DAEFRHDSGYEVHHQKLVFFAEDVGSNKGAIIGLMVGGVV

The compound `CC(C)C[C@@H](N)C(=O)N[C@H](Cc1ccccc1)C(=O)N[C@H](Cc1ccccc1)C(=O)N[C@@H](C(=O)N[C@H](CC(C)C)C(N)=O)C(C)C` [PPI-578, H-lffvl-NH2] yielded a solubility in series [1] of 2500 µg/mL (≈ 3930 µM). In series [2], this compound displayed a Kd of 290 pM.
Take `CN[C@H](CC(C)C)C(=O)N[C@@H](C(=O)N[C@H](Cc1ccccc1)C(=O)N[C@H](Cc1ccccc1)C(=O)N[C@H](CC(C)C)C(N)=O)C(C)C` [PPI-1019, N-methyl-(D-Leu-D-Val-D-Phe-D-Phe-D-Leu)-NH2]: in series [1], the concentration in solution (solubility) came to 1000 µg/mL (≈ 1540 µM). In addition, the “elevation of brain levels in the presence of cyclosporin A” value in [3] is recorded as 5 fold. In series [4], the “levels within the liver in the presence of cyclosporin A” value is recorded as “decreased levels”. In addition, in series [5], the “plasma levels in the presence of cyclosporin A” value is recorded as “elevated”.
Compound `CC(C)C[C@@H](N)C(=O)N[C@@H](C(=O)N[C@H](Cc1ccccc1)C(=O)N[C@H](Cc1ccccc1)C(=O)N[C@@H](C(N)=O)C(C)C)C(C)C` [PPI-657, H-D-Leu-D-Val-D-Phe-D-Phe-D-Val-NH2] (H-[dL][dV][dF][dF][dV]-NH2) returned a solubility in series [1] of 970 µg/mL (≈ 1560 µM). Besides, the equilibrium dissociation constant (Kd) in [2] is 330 pM.
In series [1], `CC(C)C[C@@H](N)C(=O)N[C@@H](C(=O)N[C@H](Cc1ccccc1)C(=O)NNC(=O)[C@@H](Cc1ccccc1)NC(=O)[C@H](NC(=O)[C@H](N)CC(C)C)C(C)C)C(C)C` [PPI-1125, (H-lvf-NH-)2] came in with a solubility of 5000 µg/mL (≈ 6660 µM).
Compound `CC(C)C[C@@H](N)C(=O)N[C@@H](C(=O)N[C@H](Cc1ccccc1)C(=O)N[C@H](Cc1ccccc1)C(=O)N[C@H](C)C(N)=O)C(C)C` [PPI-465, H-lvffa-NH2] had a solubility in series [1] of 1490 µg/mL (≈ 2510 µM). In series [2], this compound showed a Kd of 920 pM.
Regarding `CC(C)C[C@H](C(=O)N[C@@H](C(=O)N[C@H](Cc1ccccc1)C(=O)N[C@H](Cc1ccccc1)C(=O)N[C@H](CC(C)C)C(N)=O)C(C)C)N(C)C` [PPI-1007, (CH3)2-lvffl-NH2] (X1-[dV][dF][dF][dL]-NH2), the concentration in solution in [1] (solubility) was 180 µg/mL (≈ 271 µM).
Turning to `CC(C)C[C@@H](NC(=O)c1ccc(O)cc1)C(=O)N[C@@H](C(=O)N[C@H](Cc1ccccc1)C(=O)N[C@H](Cc1ccccc1)C(=O)N[C@H](C)C(N)=O)C(C)C` [PPI-558, 4-Hydroxybenzoyl-D-Leu-D-Val-D-Phe-D-Phe-D-Ala-NH2], the capillary bound level result in series [6] is “approx. 250 nM equiv”. The solubility in [1] was found to be 1 µg/mL (≈ 1.4 µM). Besides, the capillary bound level entry in series [7] is listed as “very low levels”. Further, the “elevation of brain levels in the presence of cyclosporin A” value in series [3] is recorded as 10 fold. Besides, in [8], the level at time molar was less than 5 nM. The same compound came in with a level at time molar at 0.5 h in [9] of more than 100 nM. Moreover, the “Kidney (expressed as % administered)” value in series [10] (PPI-558/DMPC (1:30) approx. 3 mg/kg IV, without cyclosporin A, MEAN) is 0.95 % administered. Moreover, the “Kidney (expressed as % administered)” value in [10] (PPI-558/DMPC (1:30) approx. 3 mg/kg IV, without cyclosporin A, single animals) is 0.7 % administered and 1.7 % administered and 0.5 % administered. Besides, the “Kidney (expressed as % administered)” value in series [10] (cyclosporin A 50 mg/kg IV + PPI-558/DMPC (1:30), MEAN) stood at 2.59 % administered. In addition, in series [10] (cyclosporin A 50 mg/kg IV + PPI-558/DMPC (1:30), single animals, 50 mg/kg), the “Kidney (expressed as % administered)” value was 2.5 % administered and 2.7 % administered. In series [10] (with cyclosporin A versus without), the “Kidney FOLD INCREASE” value is recorded as 3 fold. The “plasma levels in the presence of cyclosporin A” value in series [5] is reported as “elevated”. In series [11], the “Cartass FOLD INCREASE” value turned out to be 4 fold, the “Colon FOLD INCREASE” value was found to be 4 fold, the “Duodenum FOLD INCREASE” value was 6 fold and the “Fat FOLD INCREASE” value was found to be 2 fold. Besides, in series [11], the “Heart FOLD INCREASE” value is 3 fold, the “Ileum FOLD INCREASE” value is given as 2 fold, the “Liver FOLD INCREASE” value is 0.4 fold and the “Lung FOLD INCREASE” value is 1 fold. Besides, in [11], the “Muscle FOLD INCREASE” value came to 5 fold, the “Pancreas FOLD INCREASE” value turned out to be 7 fold, the “Spleen FOLD INCREASE” value is listed as 1 fold and the “Tongue FOLD INCREASE” value is on record as 5 fold. Also, in series [11], the “Urine FOLD INCREASE” value was 1 fold, the “blood at sac FOLD INCREASE” value was determined as 6 fold and the “levels within the small intestine in the presence of cyclosporin A” value is listed as “higher levels”.
